# Experiments:
# [1] = target: T1, von Hippel-Lindau disease tumor suppressor/Son of sevenless homolog 1 (Homo sapiens) (UniProt Q07889+P40337); assay: PROTAC activity at VHL/SOS1 in human NCI-H358 cells assessed as induction of SOS1 protein degradation at 1.0 uM incubated for 24 hrs by Immunoblot analysis relative to control; format: cell-based
# [2] = target: T1, von Hippel-Lindau disease tumor suppressor/Son of sevenless homolog 1 (Homo sapiens); assay: PROTAC activity at VHL/SOS1 in human NCI-H358 cells assessed as induction of SOS1 protein degradation at 0.1 uM incubated for 24 hrs by Immunoblot analysis relative to control; format: cell-based
# T1 sequence (P40337 whole entry, looked up): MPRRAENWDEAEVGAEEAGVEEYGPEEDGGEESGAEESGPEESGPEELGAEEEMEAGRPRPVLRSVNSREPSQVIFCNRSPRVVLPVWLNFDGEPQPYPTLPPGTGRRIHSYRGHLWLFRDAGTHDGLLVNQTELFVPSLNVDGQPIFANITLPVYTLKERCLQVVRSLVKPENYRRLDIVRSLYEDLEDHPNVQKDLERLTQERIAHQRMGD
# T1 sequence (Q07889 whole entry, looked up): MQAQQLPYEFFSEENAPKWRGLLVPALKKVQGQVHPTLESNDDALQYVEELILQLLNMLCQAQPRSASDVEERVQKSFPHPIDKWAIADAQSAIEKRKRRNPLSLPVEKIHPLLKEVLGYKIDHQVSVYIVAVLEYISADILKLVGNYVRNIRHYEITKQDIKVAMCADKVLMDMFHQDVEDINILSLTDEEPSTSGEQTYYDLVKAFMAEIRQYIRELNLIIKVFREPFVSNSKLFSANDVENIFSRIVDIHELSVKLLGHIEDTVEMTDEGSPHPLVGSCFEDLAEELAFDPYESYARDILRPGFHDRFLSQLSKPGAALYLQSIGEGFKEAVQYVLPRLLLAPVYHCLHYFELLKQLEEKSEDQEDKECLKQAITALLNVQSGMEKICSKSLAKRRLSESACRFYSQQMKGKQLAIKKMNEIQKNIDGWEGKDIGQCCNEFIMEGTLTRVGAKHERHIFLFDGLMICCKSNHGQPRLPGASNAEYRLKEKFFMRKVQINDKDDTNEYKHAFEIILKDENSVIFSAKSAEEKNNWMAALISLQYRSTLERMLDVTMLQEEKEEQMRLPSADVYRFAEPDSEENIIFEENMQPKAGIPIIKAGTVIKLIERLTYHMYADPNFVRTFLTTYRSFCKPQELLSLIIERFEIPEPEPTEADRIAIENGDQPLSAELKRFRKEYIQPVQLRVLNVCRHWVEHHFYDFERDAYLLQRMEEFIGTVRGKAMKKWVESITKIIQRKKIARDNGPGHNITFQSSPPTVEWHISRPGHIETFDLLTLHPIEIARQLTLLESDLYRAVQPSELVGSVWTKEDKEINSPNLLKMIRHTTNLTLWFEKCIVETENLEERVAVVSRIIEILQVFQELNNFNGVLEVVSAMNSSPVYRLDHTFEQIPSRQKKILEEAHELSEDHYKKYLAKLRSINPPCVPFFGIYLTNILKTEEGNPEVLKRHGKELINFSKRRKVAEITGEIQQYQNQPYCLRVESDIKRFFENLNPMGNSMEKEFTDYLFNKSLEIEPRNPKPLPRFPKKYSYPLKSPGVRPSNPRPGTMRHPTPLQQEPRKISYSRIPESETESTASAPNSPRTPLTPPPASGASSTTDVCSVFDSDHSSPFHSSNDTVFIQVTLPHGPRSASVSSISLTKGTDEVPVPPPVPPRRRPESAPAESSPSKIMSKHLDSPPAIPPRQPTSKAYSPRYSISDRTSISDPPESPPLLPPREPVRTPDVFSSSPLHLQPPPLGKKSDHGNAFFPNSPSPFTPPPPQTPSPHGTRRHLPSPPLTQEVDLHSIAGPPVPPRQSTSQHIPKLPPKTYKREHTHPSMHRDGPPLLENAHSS
SMILES,Activity [1] [%],Activity [2] [%]
COc1cc2nc(C)nc(N[C@H](C)c3cc(N)cc(C(F)(F)F)c3)c2cc1C1CCN(CCCCCCCC(=O)N[C@H](C(=O)N2C[C@H](O)C[C@H]2C(=O)N[C@@H](C)c2ccc(-c3scnc3C)cc2)C(C)(C)C)CC1,7.32,9.25
COc1cc2nc(C)nc(N[C@H](C)c3cc(N)cc(C(F)(F)F)c3)c2cc1C1CCN(C(=O)CCCCCCCC(=O)N[C@H](C(=O)N2C[C@H](O)C[C@H]2C(=O)N[C@@H](C)c2ccc(-c3scnc3C)cc2)C(C)(C)C)CC1,80.2,31.4
COc1cc2nc(C)nc(N[C@H](C)c3cc(N)cc(C(F)(F)F)c3)c2cc1C1CCN(C(=O)COCCOCC(=O)N[C@H](C(=O)N2C[C@H](O)C[C@H]2C(=O)N[C@@H](C)c2ccc(-c3scnc3C)cc2)C(C)(C)C)CC1,62.5,19.6
COc1cc2nc(C)nc(N[C@H](C)c3cc(N)cc(C(F)(F)F)c3)c2cc1C1CCN(C(=O)CCCCCCCCCC(=O)N[C@H](C(=O)N2C[C@H](O)C[C@H]2C(=O)N[C@@H](C)c2ccc(-c3scnc3C)cc2)C(C)(C)C)CC1,37.9,9.65
COc1cc2nc(C)nc(N[C@H](C)c3cc(N)cc(C(F)(F)F)c3)c2cc1C1CCN(C(=O)CCCCCCCCC(=O)N[C@H](C(=O)N2C[C@H](O)C[C@H]2C(=O)N[C@@H](C)c2ccc(-c3scnc3C)cc2)C(C)(C)C)CC1,0,0

# Other lines, results leading:
Activity [1] [%],Activity [2] [%],SMILES
11.7,9.28,COc1cc2nc(C)nc(N[C@H](C)c3cc(N)cc(C(F)(F)F)c3)c2cc1C1CCN(C(=O)CCCC(=O)N[C@H](C(=O)N2C[C@H](O)C[C@H]2C(=O)N[C@@H](C)c2ccc(-c3scnc3C)cc2)C(C)(C)C)CC1
22.6,21.7,COc1cc2nc(C)nc(N[C@H](C)c3cc(N)cc(C(F)(F)F)c3)c2cc1C1CCN(C(=O)C2CCN(CCC(=O)N[C@H](C(=O)N3C[C@H](O)C[C@H]3C(=O)N[C@@H](C)c3ccc(-c4scnc4C)cc3)C(C)(C)C)CC2)CC1
8.52,3.24,COc1cc2nc(C)nc(N[C@H](C)c3cc(N)cc(C(F)(F)F)c3)c2cc1C1CCN(C(=O)[C@H]2CC[C@H](C(=O)N[C@H](C(=O)N3C[C@H](O)C[C@H]3C(=O)N[C@@H](C)c3ccc(-c4scnc4C)cc3)C(C)(C)C)CC2)CC1
2.02,3.04,COc1cc2nc(C)nc(N[C@H](C)c3cc(N)cc(C(F)(F)F)c3)c2cc1C1CCN(CCCCCC(=O)N[C@H](C(=O)N2C[C@H](O)C[C@H]2C(=O)N[C@@H](C)c2ccc(-c3scnc3C)cc2)C(C)(C)C)CC1
11.2,9.8,COc1cc2nc(C)nc(N[C@H](C)c3cc(N)cc(C(F)(F)F)c3)c2cc1C1CCN(C(=O)C2CN(CCC(=O)N[C@H](C(=O)N3C[C@H](O)C[C@H]3C(=O)N[C@@H](C)c3ccc(-c4scnc4C)cc3)C(C)(C)C)C2)CC1
